Test results from patent publication US10294202B2, “Pyrrolidinones as herbicides” (FMC Corporation, priority 2013, dated 2019).

Legend:
soybean = experiment: Test C pre-/postemergence herbicide test; type: in vivo, Glycine max; details: Preemergence
Procedure, shortened: (§1)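 Greenhouse pots; formulation = non-phytotoxic solvent mix + surfactant. PRE onto seeds in loam:sand; POST at 1–4 leaves (2–18 cm) in peat moss/vermiculite medium. Read-out: visual % control vs untreated, day 13–15.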

pigweed = experiment: Test A pre-/postemergence herbicide test; type: in vivo, Amaranthus retroflexus; details: for Pigweed plant response rating: Preemergence, visual rating on 0 to 100 scale (0 no effect, 100 complete control)
Procedure, shortened: (§2)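 Greenhouse pot test with pre- and postemergence application of surfactant-containing solvent formulations. Postemergence plants were 2–10 cm, one- to two-leaf stage. Response scored visually after ~10 days, 0 (no effect) to 100 (complete control).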

nutsedge, yellow = experiment: Test C pre-/postemergence herbicide test; type: in vivo, Cyperus esculentus; details: Preemergence
Procedure, shortened: as §1

corn [1] = experiment: Test C pre-/postemergence herbicide test; type: in vivo, Zea mays; details: Preemergence; for Corn plant response rating: 31 g ai/ha
Procedure, shortened: as §1

ducksalad = experiment: Test B flooded paddy test; type: in vivo, Heteranthera limosa; details: 250 g ai/ha, Flood; scale of 0 to 100 where 0 is no effect and 100 is complete control
Procedure, shortened: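 First, plants reach the 2-leaf stage; next, pots are flooded to 3 cm and compound is delivered into the water; finally, after 13 to 15 greenhouse days at constant depth, injury is graded visually from 0 to 100 against controls.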

blackgrass = experiment: Test C pre-/postemergence herbicide test; type: in vivo, Alopecurus myosuroides; details: Preemergence; for Blackgrass plant response rating: 31 g ai/ha
Procedure, shortened: as §1

morningglory = experiment: Test C pre-/postemergence herbicide test; type: in vivo, Ipomoea coccinea; details: Preemergence
Procedure, shortened: as §1

lambsquarters = experiment: Test C pre-/postemergence herbicide test; type: in vivo, Chenopodium album; details: Preemergence
Procedure, shortened: as §1

barnyardgrass = experiment: Test A pre-/postemergence herbicide test; type: in vivo, Echinochloa crus-galli; details: for Barnyardgrass plant response rating: Preemergence, visual rating on 0 to 100 scale (0 no effect, 100 complete control)
Procedure, shortened: as §2

corn [2] = experiment: Test A pre-/postemergence herbicide test; type: in vivo, Zea mays; details: for Corn plant response rating: Preemergence, visual rating on 0 to 100 scale (0 no effect, 100 complete control)
Procedure, shortened: as §2

[3] = 125 g ai/ha, scale 0 to 100 (0 no effect, 100 complete control)
[4] = Postemergence, 125 g ai/ha, 0 to 100 scale, 0 no effect, 100 complete control
[5] = Postemergence, 500 g ai/ha, 0 to 100 scale (0 no effect, 100 complete control)
[6] = preemergence, 500 g ai/ha, 0 to 100 scale
[7] = scale 0 to 100 (0 no effect, 100 complete control)
[8] = 250 g ai/ha, scale 0 to 100 (0 no effect, 100 complete control)
[9] = preemergence, 500 g ai/ha, 0 to 100 scale (0 no effect, 100 complete control)

Compound: O=C1NCC(c2ccc(F)c(Cl)c2)C1C(=O)Nc1cccc(F)c1F (centres unmarked) [Compound 59]
- Plant response rating, Soybean (soybean; 62 g ai/ha, scale 0 to 100): 15
- Plant response rating, Soybean (soybean; [3]): 20
- Plant response rating, Pigweed (pigweed; [4]): 0
- Plant response rating, Pigweed (pigweed; [5]): 40
- Pigweed plant response rating (pigweed; 125 g ai/ha): 0
- Plant response rating, Pigweed (pigweed; [6]): 0
- Plant response rating, Nutsedge, Yellow (nutsedge, yellow; 62 g ai/ha, scale 0 to 100): 0
- Plant response rating, Nutsedge, Yellow (nutsedge, yellow; [3]): 0
- Corn plant response rating (corn [1]; [7]): 0
- Plant response rating, Corn (corn [1]; 62 g ai/ha, scale 0 to 100): 10
- Plant response rating, Corn (corn [1]; [3]): 10
- Plant response rating, Corn (corn [1]; [8]): 45
- Plant response rating, Ducksalad (ducksalad): 75
- Blackgrass plant response rating (blackgrass; [7]): 0
- Plant response rating, Blackgrass (blackgrass; 62 g ai/ha, scale 0 to 100): 0
- Plant response rating, Blackgrass (blackgrass; [3]): 30
- Plant response rating, Blackgrass (blackgrass; [8]): 60
- Plant response rating, Morningglory (morningglory; 62 g ai/ha, scale 0 to 100): 0
- Plant response rating, Morningglory (morningglory; [3]): 15
- Plant response rating, Lambsquarters (lambsquarters; 62 g ai/ha, scale 0 to 100): 0
- Plant response rating, Lambsquarters (lambsquarters; [3]): 0
- Plant response rating, Barnyardgrass (barnyardgrass; [4]): 70
- Plant response rating, Barnyardgrass (barnyardgrass; [5]): 90
- Barnyardgrass plant response rating (barnyardgrass; 125 g ai/ha): 80
- Plant response rating, Barnyardgrass (barnyardgrass; [9]): 90
- Plant response rating, Corn (corn [2]; [4]): 0
- Plant response rating, Corn (corn [2]; [5]): 30
- Corn plant response rating (corn [2]; 125 g ai/ha): 0
- Plant response rating, Corn (corn [2]; [6]): 0

Compound: O=C1NCC(c2cccc(Br)c2)C1C(=O)Nc1cccc(F)c1F (centres unmarked) [Compound 64]
- Plant response rating, Soybean (soybean; 62 g ai/ha, scale 0 to 100): 35
- Plant response rating, Soybean (soybean; [3]): 40
- Plant response rating, Pigweed (pigweed; [4]): 0
- Plant response rating, Pigweed (pigweed; [5]): 30
- Pigweed plant response rating (pigweed; 125 g ai/ha): 0
- Plant response rating, Pigweed (pigweed; [6]): 0
- Plant response rating, Nutsedge, Yellow (nutsedge, yellow; 62 g ai/ha, scale 0 to 100): 20
- Plant response rating, Nutsedge, Yellow (nutsedge, yellow; [3]): 20
- Corn plant response rating (corn [1]; [7]): 0
- Plant response rating, Corn (corn [1]; 62 g ai/ha, scale 0 to 100): 0
- Plant response rating, Corn (corn [1]; [3]): 55
- Plant response rating, Corn (corn [1]; [8]): 60
- Plant response rating, Ducksalad (ducksalad): 80
- Blackgrass plant response rating (blackgrass; [7]): 0
- Plant response rating, Blackgrass (blackgrass; 62 g ai/ha, scale 0 to 100): 5
- Plant response rating, Blackgrass (blackgrass; [3]): 5
- Plant response rating, Blackgrass (blackgrass; [8]): 30
- Plant response rating, Morningglory (morningglory; 62 g ai/ha, scale 0 to 100): 20
- Plant response rating, Morningglory (morningglory; [3]): 20
- Plant response rating, Lambsquarters (lambsquarters; 62 g ai/ha, scale 0 to 100): 10
- Plant response rating, Lambsquarters (lambsquarters; [3]): 30
- Plant response rating, Barnyardgrass (barnyardgrass; [4]): 60
- Plant response rating, Barnyardgrass (barnyardgrass; [5]): 80
- Barnyardgrass plant response rating (barnyardgrass; 125 g ai/ha): 80
- Plant response rating, Barnyardgrass (barnyardgrass; [9]): 90
- Plant response rating, Corn (corn [2]; [4]): 30
- Plant response rating, Corn (corn [2]; [5]): 40
- Corn plant response rating (corn [2]; 125 g ai/ha): 20
- Plant response rating, Corn (corn [2]; [6]): 20

Compound: O=C1NCC(c2ccc(Cl)c(F)c2)C1C(=O)Nc1ccccc1F (centres unmarked) [Compound 53]
- Plant response rating, Soybean (soybean; 62 g ai/ha, scale 0 to 100): 15
- Plant response rating, Soybean (soybean; [3]): 15
- Plant response rating, Pigweed (pigweed; [4]): 0
- Plant response rating, Pigweed (pigweed; [5]): 0
- Pigweed plant response rating (pigweed; 125 g ai/ha): 0
- Plant response rating, Pigweed (pigweed; [6]): 0
- Plant response rating, Nutsedge, Yellow (nutsedge, yellow; 62 g ai/ha, scale 0 to 100): 20
- Corn plant response rating (corn [1]; [7]): 10
- Plant response rating, Corn (corn [1]; 62 g ai/ha, scale 0 to 100): 20
- Plant response rating, Corn (corn [1]; [3]): 20
- Plant response rating, Corn (corn [1]; [8]): 20
- Plant response rating, Ducksalad (ducksalad): 100
- Blackgrass plant response rating (blackgrass; [7]): 0
- Plant response rating, Blackgrass (blackgrass; 62 g ai/ha, scale 0 to 100): 0
- Plant response rating, Blackgrass (blackgrass; [3]): 0
- Plant response rating, Blackgrass (blackgrass; [8]): 0
- Plant response rating, Morningglory (morningglory; 62 g ai/ha, scale 0 to 100): 0
- Plant response rating, Morningglory (morningglory; [3]): 0
- Plant response rating, Lambsquarters (lambsquarters; 62 g ai/ha, scale 0 to 100): 0
- Plant response rating, Lambsquarters (lambsquarters; [3]): 40
- Plant response rating, Barnyardgrass (barnyardgrass; [4]): 30
- Plant response rating, Barnyardgrass (barnyardgrass; [5]): 80
- Barnyardgrass plant response rating (barnyardgrass; 125 g ai/ha): 80
- Plant response rating, Barnyardgrass (barnyardgrass; [9]): 90
- Plant response rating, Corn (corn [2]; [4]): 0
- Plant response rating, Corn (corn [2]; [5]): 0
- Corn plant response rating (corn [2]; 125 g ai/ha): 0
- Plant response rating, Corn (corn [2]; [6]): 0
